Measured values: patent US9611248B2, “Chemical compounds” (Syngenta Participations AG, priority 2013, dated 2017)

System: a variety of test species
Test: Post-emergence herbicidal activity
Format: in vivo
Set-up: key to ABUTH (Abutilon theophrasti) damage score / AMARE (Amaranthus retroflexus) damage score / ALOMY (Alopecurus myosuroides) damage score / ECHCG (Echinochloa crus-galli) damage score / ZEAMX (Zea mays) damage score / SOLNI (Solanum nigrum) damage score: 0 = no damage to plant, 5 = total damage to plant
Conditions: rate 1000 g/ha, evaluated after 13 days
Experimental: Seeds of a variety of test species were sown in standard soil in pots. After 8 days cultivation (post-emergence) under controlled conditions in a glasshouse (at 24/16° C., day/night; 14 hours light; 65% humidity), the plants were sprayed with an aqueous spray solution derived from the formulation of the technical active ingredient in acetone/water (50:50) solution containing 0.5% Tween 20 (polyoxyethelyene sorbitan monolaurate, CAS RN 9005-64-5). The test plants were then grown in a glasshouse under controlled conditions (at 24/16° C., day/night; 14 hours light; 65% humidity) and watered twice daily. After 13 days, the test was evaluated (5=total damage to plant; 0=no damage to plant, NC=not captured).

| Compound | ABUTH (Abutilon theophrasti) damage score | ALOMY (Alopecurus myosuroides) damage score | AMARE (Amaranthus retroflexus) damage score | ECHCG (Echinochloa crus-galli) damage score | SETFA (Setaria faberi) damage score | ZEAMX (Zea mays) damage score |
| --- | --- | --- | --- | --- | --- | --- |
| CCCC1=C(Cl)C(O)N(c2cc(C(F)(F)F)ccn2)C1=O (centres unmarked) [AA40] | 2 | 2 | 4 | 4 | 1 | 1 |
| CC(C)(C)C1=C(Cl)C(O)N(c2cc(C(F)(F)F)ccn2)C1=O (centres unmarked) [AA41] | 0 | 0 | 0 | 3 | 0 | 2 |
| CC(C)C1=C(Cl)C(O)N(c2cc(C(F)(F)F)ccn2)C1=O (centres unmarked) [AA42] | 3 | 1 | 3 | 0 | 0 | 1 |
| CCC1=C(Cl)C(O)N(c2cc(C(F)(F)F)ccn2)C1=O (centres unmarked) [AA43] | 2 | 1 | 2 | 5 | 3 | 1 |
| CC1=C(Cl)C(O)N(c2cc(C(C)(C)C)ccn2)C1=O (centres unmarked) [AA44] | 1 | 1 | 3 | 1 | 2 | 1 |
| CC1=C(Cl)C(O)N(c2cc(C(F)(F)F)c(C(=O)OC(C)(C)C)cn2)C1=O (centres unmarked) [AA45] | 2 | 2 | 3 | 1 | 2 | 1 |
| CC1=C(Cl)C(O)N(c2cc(C(F)(F)F)c(C(=O)NC(C)(C)C)cn2)C1=O (centres unmarked) [AA46] | 5 | 3 | 5 | 3 | 3 | 0 |
| CCOC(=O)c1cnc(N2C(=O)C(C)=C(Cl)C2O)cc1Cl (centres unmarked) [AA47] | 1 | 1 | 0 | 2 | 3 | 1 |
| CC1=C(Cl)C(O)N(c2cc(C)c(-c3ccsc3)cn2)C1=O (centres unmarked) [AA48] | 4 | 1 | 5 | 3 | 4 | 0 |
| CC1=C(Cl)C(O)N(c2cc(C(C)C)c(C(=O)NC(C)(C)C)cn2)C1=O (centres unmarked) [AA49] | 3 | 2 | – | 1 | 3 | 0 |
| CCc1cc(N2C(=O)C(C)=C(Cl)C2O)ncc1Br (centres unmarked) [AA50] | 3 | 2 | 2 | 3 | 3 | 1 |
| CC1=C(Br)C(O)N(c2cc(C(F)(F)F)ccn2)C1=O (centres unmarked) [AB1] | 3 | 2 | 5 | 3 | 4 | 0 |
| COC1=C(C)C(=O)N(c2cc(C(F)(F)F)c(C(C)=O)cn2)C1O (centres unmarked) [AD2, 1-[5-acetyl-4-(trifluoromethyl)-2-pyridyl]-2-hydroxy-3-methoxy-4-methyl-2H-pyrrol-5-one] | 5 | 5 | 5 | 5 | 5 | 2 |
| COC1=C(C)C(=O)N(c2nccc(C(F)(F)F)c2C#N)C1O (centres unmarked) [AD5] | 5 | 4 | 5 | 4 | 4 | 2 |
| COC1=C(C)C(=O)N(c2nccc(C(F)(F)F)c2F)C1O (centres unmarked) [AD7] | 5 | 5 | 5 | 5 | 5 | 3 |
| COC1=C(C)C(=O)N(c2cc(C(F)(F)F)c(OC)cn2)C1O (centres unmarked) [AD10, 2-hydroxy-3-methoxy-1-[5-methoxy-4-(trifluoromethyl)-2-pyridyl]-4-methyl-2H-pyrrol-5-one] | 5 | 5 | 5 | 5 | 5 | 2 |
| CCC/C=C/c1cnc(N2C(=O)C(C)=C(OC)C2O)cc1C(F)(F)F (centres unmarked) [AD13] | 5 | 5 | 5 | 5 | 5 | 1 |
| COC1=C(C)C(=O)N(c2cc(C(F)(F)F)c(SC)cn2)C1O (centres unmarked) [AD14, 2-hydroxy-3-methoxy-4-methyl-1-[5-methylsulfanyl-4-(trifluoromethyl)-2-pyridyl]-2H-pyrrol-5-one] | 5 | 3 | 4 | 5 | 5 | 1 |
| COC1=C(C)C(=O)N(c2cc(C(F)(F)F)c(C#C[Si](C)(C)C)cn2)C1O (centres unmarked) [AD15, 2-hydroxy-3-methoxy-4-methyl-1-[4-(trifluoromethyl)-5-(2-trimethylsilylethynyl)-2-pyridyl]-2H-pyrrol-5-one] | 3 | 3 | 5 | 4 | 5 | 2 |
| COC1=C(C)C(=O)N(c2cc(C(C)F)ccn2)C1O (centres unmarked) [AD18] | 4 | 3 | 1 | 4 | 1 | 0 |
| C#Cc1cnc(N2C(=O)C(C)=C(OC)C2O)cc1C(F)(F)F (centres unmarked) [AD20] | 4 | 4 | 5 | 4 | 5 | 0 |
| COC1=C(C)C(=O)N(c2cc(C(F)(F)F)c(C=C(C)C)cn2)C1O (centres unmarked) [AD21, 2-hydroxy-3-methoxy-4-methyl-1-[5-(2-methylprop-1-enyl)-4-(trifluoromethyl)-2-pyridyl]-2H-pyrrol-5-one] | 5 | 2 | 5 | 5 | 4 | 0 |
| COC1=C(C)C(=O)N(c2nccc(C(F)(F)F)c2Br)C1O (centres unmarked) [AD25] | 1 | 1 | 2 | 1 | 2 | 1 |
| COC1=C(C)C(=O)N(c2cc(C(F)(F)F)c(C#N)cn2)C1O (centres unmarked) [AD26, 6-(2-hydroxy-3-methoxy-4-methyl-5-oxo-2H-pyrrol-1-yl)-4-(trifluoromethyl)pyridine-3-carbonitrile] | 5 | 4 | 5 | 5 | 4 | 2 |
| C=Cc1cnc(N2C(=O)C(C)=C(OC)C2O)cc1C(F)(F)F (centres unmarked) [AD27] | 5 | 4 | 5 | 5 | 4 | 2 |
| COC1=C(C)C(=O)N(c2cc(C(F)(F)F)c(C)cn2)C1O (centres unmarked) [AD28] | 5 | 4 | 5 | 5 | 5 | 4 |
| COC1=C(C)C(=O)N(c2ncc(Br)c(C(F)(F)F)c2Br)C1O (centres unmarked) [AD29] | 0 | 1 | 0 | 0 | 0 | 1 |
